In this test the test system is endoperoxide cyclooxygenase (PG synthetase). Put plainly: Inhibition of oxygen uptake in the conversion of unsaturated fatty acid to prostaglandin endoperoxides (cyclooxygenase / PG synthetase inhibition, standard in vitro laboratory test). In kind it is biochemical. From the text: The novel prostacyclin analogs disclosed herein are all inhibitors of endoperoxide cyclooxygenase, an enzyme which converts unsaturated fatty acids (e.g., arachadonic acid) to prostaglandin endoperoxide intermediate (e.g., PGH2). The inhibition of this enzyme (also known as PG synthetase) is established as a standard in vitro laboratory test which measures oxygen uptake in the conversion of the unsaturated fatty acid to the endoperoxides, e.g., [drawing 22]
The efficacy of the novel prostacyclin analogs herein as inhibitors of cyclooxygenase (PG synthetase) is indicated in the following comparison between 2-(acetylozy)benzoic acid (aspirin) and 7,8-didehydro-6β-PGI1, methyl ester:
For further description of PG synthetase inhibition, see Vane, Nature New Biology, 231-232 (1971) and Takeguchi, et al., Prostaglandins 2:169 (1972).

Structures are written as SMILES.

Experimental findings from patent US4160095A, “7,8-Didehydro-PGI1 amides” (The Upjohn Company, priority 1978, dated 1979) are described below.

Consider `CC(=O)Oc1ccccc1C(=O)O` [2-(Acetyloxy)-benzoic acid, 2-(acetyloxy)benzoic acid], for which the “Percent inhibition of Oxygen Uptake” value reads like this: (Concentration 5 × 10^-4 M) 100%; (Concentration 5 × 10^-5 M, result in words) “Inactive”.
For `CCCCC[C@H](O)/C=C/[C@@H]1C2=C[C@H](CCCCC(=O)OC)O[C@H]2C[C@H]1O` [7,8-Didehydro-6β-PGI methyl ester, 7,8-didehydro-6β-PGI1, methyl ester], the “Percent inhibition of Oxygen Uptake” value (Concentration 5 × 10^-4 M) amounted to 46%.
